In patent US20240301409A1, “Chemically Modified Small Activating RNA” (RACTIGEN THERAPEUTICS, priority 2021, published 2024):
Oligonucleotides are written 5' to 3', each unit as a sugar letter and its base; * is a phosphorothioate linkage, no mark a phosphodiester; rarer units and linkages stand in square brackets, end groups in braces. Plain capitals give the bases only. m = 2'-O-methyl; r = 2'-OH (RNA); f = 2'-fluoro

What was measured:
INF-α = assay: PBMC cytokine release assay, INF-α (ELISA); conditions: 10 nM, 24 hours; for immunostimulatory activity (INF-α) compared with Rag1-40, in words: PBMC
Protocol: Cells were treated with the indicated duplexes at a final concentration of 10 nM or lipopolysaccharide (LPS) as a positive control for 24 hours, respectively. The levels of INF-α and TNF-α in the cell supernatant were detected by ELISA kit. […] Data represent mean±SD of two independent experiments.
Human peripheral blood mononuclear cells (Allcells, Alameda, CA) were seeded in a 96-well microplate at a density of approximately 10×10^4 cells/well. Transfection of dsRNA was performed using RNAiMAX (Invitrogen, Carlsbad, CA) following manufacturer's instructions. Supernatants were collected 24 hours after transfection and immediately assayed for IFN-α and TNF-α production using ELISA kit (R&D Systems). Each treatment group was analyzed in triplicate.
To assess the immunostimulatory effect of chemically modified saRNAs, human peripheral blood mononuclear cells (PBMC) from healthy donors were incubated with the double-stranded saRNAs, and INF-α and TNF-α levels in the supernatant of treated cells after 24 hours were measured.

[1] = system: Rag1-40 target sequence in the 3′ UTR of firefly luciferase, COS-1 cells; assay: Analysis of off-target effects (pOff-Target dual luciferase reporter in COS-1 cells); conditions: lysed 48 hours after transfection, luciferase activity
Ku-7-LG cells = assay: Cellular proliferation assay (CCK8) in Ku-7-LG cells; assay type: cell-based, human; conditions: 10 nM, 72 hours
Protocol: Ku-7-LG cells were transfected with the indicated saRNA at 10 nM for 3 days. […] The closer the luciferase value is to the control group, the lower the probability of off-target effects of saRNA is. Control and dsCon2 were blank transfection and double-stranded scramble RNA transfection, respectively. The value of the ordinate represents the mean±SD of two repeated treatments.
(§1) After the transfection, the number of viable cells was detected with a CCK8 kit, and plotted as the percentage of the blank control treatment group. […] A transfection sample without oligonucleotide served as a blank control. Non-specific duplex (dsCon) transfected sample served as a negative control. Data are presented as mean±SD of at least two independent experiments. The values below the dashed line indicate stronger growth inhibitory activity compared to duplex Rag1-40 without chemical modification.
(§2) Human bladder cancer cells Ku-7-LG (ATCC), J82 (ATCC) and T24 (ATCC) were cultured in McCoy medium (Gibco) comprising 10% calf serum (Sigma-Aldrich) and 1% penicillin/Streptomycin (Gibco). Cells were cultured at 37° C. under 5% CO2. Ku-7-LG, J82 and T24 cells were plated into 12-well plates at 10×10^4 cells per well, transfected with the small RNA at a concentration of 10 nM (unless otherwise specified) for three days, using RNAiMax (Invitrogen, Carlsbad, CA) according to the manufacturer's instructions. Two replicate wells were set for each treatment.
(§3) Cells were plated in a 96-well plate at 2˜4×10^3 cells/well, cultured overnight, and transfected with the oligonucleotide duplexes. Three days after transfection, CCK8 (Dojindo) was used to detect cellular proliferation following manufacturer's instructions. The experimental steps are briefly described as follows: 10 μL of CCK8 solution was added to each well, incubated at 37° C. for 1 hour, and then the absorbance at 450 nm was measured using a microplate reader.
(§4) It is known that p21 induction by saRNA is that a variety of tumor suppressor factors such as p21 protein suppress the proliferation of cancer cells. To evaluate the effect of chemically modified saRNAs on the function of cancer cells, cells (Ku-7-LG and T24) were transfected with 10 nM unmodified and modified saRNAs for 72 hours, and the cellular proliferation was determined by CCK8. […] Furthermore, there was a correlation between RNA activating activity (FIGS. 7A-7B) and suppression of cellular proliferation activity (FIGS. 8A-8B). Strong p21 activators are usually also strong cytostatics.

T24 cells = assay: Cellular proliferation assay (CCK8) in T24 cells, alone and combined with Mitomycin C or valrubicin; assay type: cell-based, human; conditions: T24 cells, 10 nM, 72 hours, CCK8
Source text: as §1
T24 cells were transfected with RAG1-40-31 at concentrations of 0.1, 0.5, 1, 5, 10, 25 and 50 nM for 24 hours, and then Mitomycin C was added at concentrations of 1, 10, 100, 1000 and 10000 nM. The combined treatment was carried out with concentrations in pairs. After treatment, the cellular proliferation was detected by CCK8 kit. FIGS. 16A-16B show the relative proliferation proportion of T24 cells after the combined treatment with chemically modified saRNA RAG1-40-31 and valrubicin. […] Control and DMSO are the blank transfection control and the solvent for dilution control, respectively.
T24 cells were transfected with RAG1-40-31 at concentrations of 0.1, 0.5, 1, 5, 10, 25 and 50 nM for 24 hours, and then valrubicin at concentrations of 1, 10, 100, 1000 and 10000 nM was added. The combined treatment was carried out with concentrations in pairs. After treatment, the cellular proliferation was detected by CCK8 kit.
as §2, §3, §4

RNase A = biological target: T1, RNase A (Bos taurus, UniProt P61823); assay: saRNA stability analysis in the presence of RNase A (agarose gel); conditions: incubation 0 to 96 hours
T1 sequence (P61823 27-150): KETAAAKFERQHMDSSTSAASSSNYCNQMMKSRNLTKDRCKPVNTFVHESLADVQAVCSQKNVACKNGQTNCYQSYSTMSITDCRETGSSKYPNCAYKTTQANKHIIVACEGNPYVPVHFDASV

Row | Substance | protein level of INF-α (INF-α; PBMC supernatant) | off-target effect compared to unmodified Rag1-40, in words [1] | immunostimulatory activity (INF-α) compared with Rag1-40, in words (INF-α) | suppression of cellular proliferation, in words (Ku-7-LG cells) | suppression of cellular proliferation, in words (T24 cells) | degradation of duplex at 96 hours (RNase A)
1 | RAG1-IS-1: RNA duplex known to have strong immunostimulatory activity, positive control: S GUCAUCACACUGAAUACCAAU (SEQ ID NO 20), AS AUUGGUAUUCAGUGUGAUGACAC (SEQ ID NO 21) (listed as RNA, chemistry not given here) [reference compound] | 708 pg/mL | – | – | – | – | –
2 | Rag1-40-5: saRNA duplex: sense mCmCAACUCAUUCUCCAAGmUmC (SEQ ID NO 5); antisense UACUfUGGAGAAfUGAGUfUGG*fC*A (SEQ ID NO 10) (sense CCAACUCAUUCUCCAAGUC; antisense UACUUGGAGAAUGAGUUGGCA; 2'-OMe, 2'-F, phosphorothioates; modified_base (1)..(19) (1,2,18,19)=2′-O-methyl(2′-OMe); modified_base (5)..(20) (5,12,17,20)=2′-fluoro; modified_base (19)..(21) (19,20,21)=phosphorothioate (PS) backbone modification) | – | completely inhibited | reduced immunostimulatory activity | – | – | –
3 | Rag1-40-8: saRNA duplex: sense mCmCAACUCAUUCUCCAAGmUmC (SEQ ID NO 5); antisense fUactfUGGAGAAfUGAGfUfUGG*fC*A (SEQ ID NO 13) (sense CCAACUCAUUCUCCAAGUC; antisense UACTUGGAGAAUGAGUUGGCA; 2'-OMe, 2'-F, phosphorothioates, DNA residues; modified_base (1)..(19) (1,2,18,19)=2′-O-methyl(2′-OMe); modified_base (1)..(17) (1,2,9,13,14,17)=2′-fluoro; (1)..(21) (1,5,6,7,8,9,10,11,12,13,14,15,1,61,7,18,19,20, 21)=RNA; (2)..(4) (2,3,4)=DNA; modified_base (16)..(18) (16,17,18)=phosphorothioate (PS) backbone modification) | – | mitigated or similar off-target effects | reduced immunostimulatory activity | weakens the activity of the saRNA duplex to suppress cellular proliferation | weakens the activity of the saRNA duplex to suppress cellular proliferation | little or no signs of degradation
4 | Rag1-40-9: saRNA duplex: sense fCfCAACUCAUUCUCCAAGfUfC (SEQ ID NO 14); antisense fUAfCfUfUGGAGAAfUGAGfUfUGGfCA (SEQ ID NO 6) (sense CCAACUCAUUCUCCAAGUC; antisense UACUUGGAGAAUGAGUUGGCA; 2'-F modifications; modified_base (1)..(19) (1,2,18,19)=2′-fluoro; modified_base (1)..(20) (1,3,4,5,12,16,17,20)=2′-fluoro) | – | mitigated or similar off-target effects | reduced immunostimulatory activity | – | – | little or no signs of degradation
5 | Rag1-40-13: saRNA duplex: sense fCfCAACUCAUUCUCCAAGfUfC (SEQ ID NO 14); antisense UACUfUGGAGAAfUGAGUfUGG*fC*A (SEQ ID NO 10) (sense CCAACUCAUUCUCCAAGUC; antisense UACUUGGAGAAUGAGUUGGCA; 2'-F modifications, phosphorothioates; modified_base (1)..(19) (1,2,18,19)=2′-fluoro; modified_base (5)..(20) (5,12,17,20)=2′-fluoro; modified_base (19)..(21) (19,20,21)=phosphorothioate (PS) backbone modification) | – | mitigated or similar off-target effects | reduced immunostimulatory activity | – | – | –
6 | Rag1-40-15: saRNA duplex: sense fCfCAACUCAUUCUCCAAGfUfC (SEQ ID NO 14); antisense U*A*fCfUfUGGAGAAfUGAGfUfUGG*fC*A (SEQ ID NO 12) (sense CCAACUCAUUCUCCAAGUC; antisense UACUUGGAGAAUGAGUUGGCA; 2'-F modifications, phosphorothioates; modified_base (1)..(19) (1,2,18,19)=2′-fluoro; modified_base (2)..(21) (2,3,19,20,21)=phosphorothioate (PS) backbone modification; modified_base (3)..(20) (3,4,5,12,16,17,20)=2′-fluoro) | – | mitigated or similar off-target effects | reduced immunostimulatory activity | – | – | little or no signs of degradation
7 | Rag1-40-24: saRNA duplex: sense mCmCAACUCAUUCUCCAAG*U*C (SEQ ID NO 15); antisense fUactfUGGAGAAfUGAGfUfUGG*fC*A (SEQ ID NO 13) (sense CCAACUCAUUCUCCAAGUC; antisense UACTUGGAGAAUGAGUUGGCA; 2'-OMe, 2'-F, phosphorothioates, DNA residues; modified_base (1)..(2) (1,2)=2′-O-methyl(2′-OMe); modified_base (17)..(19) (17,18,19)=phosphorothioate (PS) backbone modification; modified_base (1)..(17) (1,2,9,13,14,17)=2′-fluoro; (1)..(21) (1,5,6,7,8,9,10,11,12,13,14,15,1,61,7,18,19,20, 21)=RNA; (2)..(4) (2,3,4)=DNA; modified_base (16)..(18) (16,17,18)=phosphorothioate (PS) backbone modification) | – | completely inhibited | – | weakens the activity of the saRNA duplex to suppress cellular proliferation | weakens the activity of the saRNA duplex to suppress cellular proliferation | little or no signs of degradation
8 | Rag1-40-27: saRNA duplex: sense fCfCAACUCAUUCUCCAAG*U*C (SEQ ID NO 16); antisense fUmAfCfUfUmGmGmAmGmAmAfUmGmAmGfUfUmGmGfCmA (SEQ ID NO 8) (sense fCfCrArArCrUrCrArUrUrCrUrCrCrArArG*rU*rC) | – | completely inhibited | reduced immunostimulatory activity | negatively affects proliferation suppression activity | negatively affects proliferation suppression activity | little or no signs of degradation
